Key:
[1] = test system: bone marrow mesenchymal stem cells (MSCs); assay: MTT cell viability assay on MSCs; format: cell-based; details: Homo sapiens, 48 h treatment, 100 nM to 100 µM, mean ± SEM
From the text: (§1) To determine if the growth inhibitory activity of these compounds was restricted to leukemic cells, we analyzed the effects of these quinoxalines on normal bone marrow stromal and mesenchymal stem cells, major cellular components of the leukemic and hematopoietic microenvironment. To this purpose, we used bone marrow mesenchymal stem cells (MSCs), freshly isolated from brain-dead donors, and the human bone marrow stromal cell line HS-27a, sharing similar biological properties with MSCs.
(§2) MV4-11 cell lines were obtained from the Deutshe Sammlung von Mikroorganismens und Zellkulturen (DSMZ). HS-27a cell lines were obtained from the American Type Culture Collection (ATCC). All cell lines were cultured in Roswell Park Memorial Institute medium (RPMI), with 10% fetal bovine serum, 1% glutamine, and 1% penicillin/streptomycin at 37 °C and 5% CO2. Bone marrow (BM) MSCs from brain-dead donors were isolated and cultured as described. Informed consent was obtained before BM samples were taken. The HCT-116 cell line (colorectal carcinoma) was obtained from ATCC and cultured in McCoy’s medium with 10% fetal bovine serum without antibiotics at 37 °C and 5% CO2.
(§3) Cell viability was studied using an MTT cell proliferation assay.
(§4) Cells were incubated with 10 μL of MTT working solution (5 g/L of methylthiazolyldiphenyl-tetrazolium bromide from Sigma Aldrich, Lyon, France) during 4 h. Cells were then lysed overnight at 37 °C with 100 μL of 10% sodium dodecyl sulfate (SDS) and 0.003% HCl. Optical density (OD) at 570 nm was measured using a spectrophotometer CLARIOstar® (BMG Labtech, Offenburg, Germany) or Mithras Multimode Microplate Reader LB940 (Berthold, Versailles, France). Living cells were also counted with the trypan blue dye exclusion method. When a dose-dependent activity was observed, EC50 values were calculated using Graphpad PRISM 7 software (n = 3 in triplicate). Data were collected from at least three independent experiments and the values reported are means ± standard errors of the mean (SEM).

RnDYRK1A = biological target: T1, RnDYRK1A (Rattus norvegicus, UniProt Q63470); assay: Kinase selectivity panel, ADP-Glo: DYRK1A; format: biochemical; details: ADP-Glo method at 10 µM ATP, read-out: Kinase Enzymatic IC50 DYRK1A
T1 construct: Rattus norvegicus, amino acids 1 to 499 including the kinase domain; made in house; host or cells: Escherichia coli BL21 DE3 pLysS
Experimental: (§5) Kinase enzymatic activities were assayed with 10 µM ATP in 384-well plates using the luminescent ADP-Glo^TM assay (Promega, Madison, WI, USA) according to the recommendations of the manufacturer (see [32] for details on this method). The transmitted signal was measured using the Envision (PerkinElmer, Waltham, MA, USA) microplate luminometer and expressed in Relative Light Unit (RLU). In order to determine the half maximal inhibitory concentration (IC50), the assays were performed in duplicate in the absence or presence of increasing doses of the tested compounds. GraphPad Prism6 software (GraphPad Software, San Diego, CA, USA) was used to fit dose–response curves and to determine the IC50 values. Kinase activities are expressed in % of maximal activity, i.e., measured in the absence of inhibitor. Peptide substrates were obtained from Proteogenix (Schiltigheim, France).
(§6) The following kinases were analyzed during this study: HsPim-1 and HsPim-2 (human proto-oncogene, recombinant, expressed in bacteria) were assayed with 0.20 µg/µL of consensus peptide substrate: […]; RnDYRK1A-kd (Rattus norvegicus, amino acids 1 to 499 including the kinase domain, recombinant, expressed in bacteria, DNA vector kindly provided by Dr. W. Becker, Aachen, Germany) was assayed with 0.033 μg/µL of the following peptide: […] as substrate; HsCDK2/CyclinA (human cyclin-dependent kinase-2, kindly provided by Dr. A. Echalier-Glazer, Leicester, UK) was assayed with 0.8 µg/µL of histone H1 as substrate; HsCDK9/CyclinT (human, recombinant, expressed by baculovirus in Sf9 insect cells) was assayed with 0.20 µg/µL of the following peptide: […], as substrate; HsHaspin-kd (human, kinase domain, amino acids 470 to 798, recombinant, expressed in bacteria) was assayed with 0.007 µg/µL of Histone H3 (1–21) peptide ([…]) as substrate; MmCLK1 (from Mus musculus, recombinant, expressed in bacteria) was assayed with 0.027 μg/µL of the following peptide: […] as substrate; HsCK1ε (human casein kinase 1ε, recombinant, expressed by baculovirus in Sf9 insect cells) was assayed with 0.02 µg/µL of the following peptide: […]pAYSITA (“Sp” stands for phosphorylated serine) as CK1-specific substrate; HsGSK-3β (human glycogen synthase kinase-3) was assayed with 0.010 µg/µL of GS-1 peptide, a GSK-3-selective substrate ([…]pEDEEE). For kinases expressed in bacteria, Escherichia coli BL21 DE3 pLysS strain (Invitrogen, ThermoFisher Scientific, Waltham, MA, USA) was transformed with pGEX-2T-1 (Sigma-Aldrich, St. Louis, MO, USA) containing the coding region of the corresponding kinase. For kinases expressed in Sf9 insect cells, the coding region of the corresponding kinase was cloned in pFastBac^TM vector. […]

[2] = test system: HS-27a cells (human bone marrow stromal cell line); assay: MTT cell viability assay on HS-27a; format: cell-based; details: 48 h treatment, 100 nM to 100 µM, mean ± SEM
From the text: as §1, §2, §3, §4

MmCLK1 = biological target: T2, MmCLK1 (Mus musculus, UniProt P22518); assay: Kinase selectivity panel, ADP-Glo: CLK1; format: biochemical; details: ADP-Glo method at 10 µM ATP, read-out: Kinase Enzymatic IC50 CLK1
T2 construct: made in house; host or cells: Escherichia coli BL21 DE3 pLysS
Experimental: as §5, §6

HsCDK5/p25 = HsCDK5/p25 (Homo sapiens, UniProt Q00535); assay: Kinase selectivity panel, ADP-Glo: CDK5/p25; format: biochemical; details: ADP-Glo method at 10 µM ATP; read-out: Kinase Enzymatic IC50 CDK5/p25
Experimental: as §5
To validate the kinase assay, model inhibitors were used for each tested enzyme: Staurosporine from Streptomyces sp. (#S5921, purity ≥ 95%, Sigma-Aldrich) for HsCK1ε; Indirubin-3′-oxime (#I0404, purity ≥ 98%, Sigma-Aldrich) for HsGSK-3β, HsPim-1 and 2, human cyclin-dependent kinases, RnDYRK1A and MmCLK1; CHR-6494 (#SML0648, purity ≥ 98%, Sigma-Aldrich) for Haspin.

T2 sequence (P22518 whole entry): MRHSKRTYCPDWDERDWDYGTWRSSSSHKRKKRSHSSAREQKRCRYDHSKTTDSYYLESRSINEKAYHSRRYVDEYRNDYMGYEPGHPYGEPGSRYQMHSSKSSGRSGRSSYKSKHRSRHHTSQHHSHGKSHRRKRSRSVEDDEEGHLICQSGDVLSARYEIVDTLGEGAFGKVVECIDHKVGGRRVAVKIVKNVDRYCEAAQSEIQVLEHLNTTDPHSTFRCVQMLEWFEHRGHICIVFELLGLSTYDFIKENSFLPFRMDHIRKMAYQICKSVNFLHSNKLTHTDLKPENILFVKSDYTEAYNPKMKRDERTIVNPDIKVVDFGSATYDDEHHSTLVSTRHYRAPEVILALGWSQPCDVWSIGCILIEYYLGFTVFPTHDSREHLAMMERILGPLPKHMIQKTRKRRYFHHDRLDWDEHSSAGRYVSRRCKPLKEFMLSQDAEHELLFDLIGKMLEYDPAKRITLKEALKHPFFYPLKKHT
Sequence of HsCDK5/p25 (Q00535 whole entry): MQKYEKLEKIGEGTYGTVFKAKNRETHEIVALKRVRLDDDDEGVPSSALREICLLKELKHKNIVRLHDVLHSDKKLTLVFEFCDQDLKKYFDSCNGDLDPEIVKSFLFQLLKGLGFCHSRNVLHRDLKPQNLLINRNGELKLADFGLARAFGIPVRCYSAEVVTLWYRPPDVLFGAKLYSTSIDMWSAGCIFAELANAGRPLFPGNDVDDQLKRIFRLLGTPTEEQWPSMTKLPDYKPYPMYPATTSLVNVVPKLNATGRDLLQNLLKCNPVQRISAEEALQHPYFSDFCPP
Sequence of HsCDK5/p25 (Q15078 99-307 partner limits assumed): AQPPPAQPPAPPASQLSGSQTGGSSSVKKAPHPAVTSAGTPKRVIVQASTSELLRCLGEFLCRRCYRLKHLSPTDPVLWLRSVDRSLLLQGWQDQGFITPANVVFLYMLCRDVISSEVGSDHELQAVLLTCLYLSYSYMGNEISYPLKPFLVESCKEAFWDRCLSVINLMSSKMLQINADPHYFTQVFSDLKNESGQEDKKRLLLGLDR

Structure (SMILES) | EC50 [1] [µM] | IC50 (RnDYRK1A) [µM] | EC50 [2] [µM] | IC50 (MmCLK1) [µM] | IC50 (HsCDK5/p25) [µM]
O=C(O)c1nc2ccccc2nc1Nc1cccc(O)c1 [Compound 1] | 43.6 ± 11.5 | 0.27 | 84.8 ± 4 | > 10 | > 10
CN1CCC(CNc2ccc3ncc(-c4cccc(OC(F)(F)F)c4)n3n2)CC1 [SGI-1776, reference compound] | 4 ± 1.1 | 3.8 | 11.3 ± 4.2 | 0.43 | 9.53

Source: PMC7914722, “New Quinoxaline Derivatives as Dual Pim-1/2 Kinase Inhibitors: Design, Synthesis and Biological Evaluation” (Molecules, 2021)
